Laboratory results from patent US9499492B2, “4-(ortho)-fluorophenyl-5-fluoropyrimidin-2-yl amines containing a sulfoximine group” (BAYER PHARMA AKTIENGESELLSCHAFT, priority 2012, dated 2016).
Where two headings read alike, the source gives them in different places.

Experiments:
CDK9/CycT1 = CDK9/CycT1 (Homo sapiens (Human), UniProt P50750); assay: CDK9/CycT1 kinase assay (Method 1a); format: biochemical; conditions: for IC50: 10 μM ATP; for Selectivity CDK9/CDK2: derived from Methods 1a. and 2.
CDK9/CycT1, sequence (P50750 whole entry): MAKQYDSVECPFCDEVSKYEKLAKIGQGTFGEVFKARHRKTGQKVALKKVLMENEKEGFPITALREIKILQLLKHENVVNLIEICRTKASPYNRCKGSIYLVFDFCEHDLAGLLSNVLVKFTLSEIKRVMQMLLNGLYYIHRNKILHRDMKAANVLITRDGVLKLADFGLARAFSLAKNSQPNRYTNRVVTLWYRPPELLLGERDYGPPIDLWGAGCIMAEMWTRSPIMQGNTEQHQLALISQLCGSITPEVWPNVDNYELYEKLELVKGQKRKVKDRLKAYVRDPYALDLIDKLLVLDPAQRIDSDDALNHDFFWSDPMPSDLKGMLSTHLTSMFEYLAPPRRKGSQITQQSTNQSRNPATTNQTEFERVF
CDK9/CycT1, sequence (O60563 whole entry partner): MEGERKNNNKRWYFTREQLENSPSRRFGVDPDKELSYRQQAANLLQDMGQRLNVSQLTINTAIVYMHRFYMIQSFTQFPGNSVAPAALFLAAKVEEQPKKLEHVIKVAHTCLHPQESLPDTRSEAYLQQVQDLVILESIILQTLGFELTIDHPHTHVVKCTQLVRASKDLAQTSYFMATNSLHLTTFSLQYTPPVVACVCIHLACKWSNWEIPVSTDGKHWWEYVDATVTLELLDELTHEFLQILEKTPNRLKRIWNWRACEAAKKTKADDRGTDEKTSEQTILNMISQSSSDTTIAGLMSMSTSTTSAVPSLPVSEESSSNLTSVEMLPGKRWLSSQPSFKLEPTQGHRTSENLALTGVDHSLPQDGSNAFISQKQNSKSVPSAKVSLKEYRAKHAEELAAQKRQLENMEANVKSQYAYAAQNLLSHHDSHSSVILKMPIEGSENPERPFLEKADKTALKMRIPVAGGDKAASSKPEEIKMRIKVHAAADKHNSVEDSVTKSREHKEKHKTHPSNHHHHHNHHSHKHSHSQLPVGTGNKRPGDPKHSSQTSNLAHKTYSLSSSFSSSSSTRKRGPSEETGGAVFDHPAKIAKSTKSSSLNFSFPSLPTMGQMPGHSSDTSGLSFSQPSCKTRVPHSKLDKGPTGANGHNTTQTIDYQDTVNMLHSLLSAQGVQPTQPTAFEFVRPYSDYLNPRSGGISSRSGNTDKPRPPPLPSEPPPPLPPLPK

CDK2/CycE = CDK2/CycE (Homo sapiens (Human), UniProt P24941); assay: CDK2/CycE kinase assay (Method 2); format: biochemical; conditions: 10 μM ATP
[1] = system: A2780, human ovarian carcinoma cells; assay: Proliferation assay, A2780 (Method 3); format: cell-based; conditions: A2780, 4 days, crystal violet, read-out: Inhibition of A2780 cell proliferation IC50
Procedure, shortened: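 Crystal violet absorbance (595 nm) after 4-day compound exposure; % change in cell number scaled between a plate stained at compound addition (0%) and untreated wells (100%). Dose range 0.001–10 μM, DMSO 0.5% final, added 24 h post-seeding.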

[2] = system: NCI-H460, human non-small cell lung carcinoma cells; assay: Proliferation assay, NCI-H460 (Method 3); format: cell-based; conditions: NCI-H460, 4 days, crystal violet, read-out: Inhibition of H460 cell proliferation IC50
Description: (§1) After 24 hours, the cells of one plate (zero-point plate) were stained with crystal violet (see below), while the medium of the other plates was replaced by fresh culture medium (200 μl), to which the test substances were added in various concentrations (0 μM, as well as in the range of 0.001-10 μM; the final concentration of the solvent dimethyl sulfoxide was 0.5%). The cells were incubated for 4 days in the presence of test substances. Cell proliferation was determined by staining the cells with crystal violet: the cells were fixed by adding 20 μl/measuring point of an 11% glutaric aldehyde solution for 15 minutes at room temperature. After three washing cycles of the fixed cells with water, the plates were dried at room temperature. The cells were stained by adding 100 μl/measuring point of a 0.1% crystal violet solution (pH 3.0). After three washing cycles of the stained cells with water, the plates were dried at room temperature. The dye was dissolved by adding 100 μl/measuring point of a 10% acetic acid solution. The extinction was determined by photometry at a wavelength of 595 nm. The change of cell number, in percent, was calculated by normalization of the measured values to the extinction values of the zero-point plate (=0%) and the extinction of the untreated (0 μm) cells (=100%).

[3] = system: B16F10, mouse melanoma cells; assay: Proliferation assay, B16F10 (Method 3); format: cell-based; conditions: B16F10, 4 days, crystal violet, read-out: Inhibition of B16F10 cell proliferation IC50
Description: as §1

| SMILES | IC50 (CDK9/CycT1) | Selectivity CDK9/CDK2 (CDK9/CycT1) | IC50 (CDK2/CycE) | IC50 ([1]; Homo sapiens, A2780, 96 h) | IC50 ([2]; Homo sapiens, NCI-H460, 96 h) | IC50 ([3]; Mus musculus, B16-F10, 96 h) | IC50 [2] | IC50 [1] | IC50 [3] |
| --- | --- | --- | --- | --- | --- | --- | --- | --- | --- |
| CS(=O)(Cc1cc(Nc2ncc(F)c(-c3ccc(F)cc3F)n2)cc(C(F)(F)F)c1)=NC(N)=O (racemic) [Example 7, (rac)-1-{[3-{[4-(2,4-Difluorophenyl)-5-fluoropyrimidin-2-yl]amino}-5-(trifluoromethyl)benzyl](methyl)oxido-λ^6-sulfanylidene}urea] | 12 nM | 98 | 1100 nM |  |  |  |  |  |  |
| CS(=N)(=O)Cc1cc(Cl)cc(Nc2ncc(F)c(-c3ccc(F)cc3F)n2)c1 (racemic) [Example 15, (rac)-N-{3-chloro-5-[(S-methylsulfonimidoyl)methyl]phenyl}-4-(2,4-difluorophenyl)-5-fluoropyrimidin-2-amine] | 24 nM | 26 | 630 nM | 110 nM |  |  |  |  |  |
| CS(=O)(Cc1cc(Nc2ncc(F)c(-c3ccc(F)cc3F)n2)cc(S(F)(F)(F)(F)F)c1)=NC#N (racemic) [Example 28, (rac)-{[3-{[4-(2,4-Difluorophenyl)-5-fluoropyrimidin-2-yl]amino}-5-(pentafluoro-λ^6-sulfanyl)benzyl](methyl)oxido-λ^6-sulfanylidene}cyanamide] | 6 nM | 210 | 1300 nM | 185 nM | 359 nM | 363 nM |  |  |  |
| CS(=N)(=O)Cc1cc(Nc2ncc(F)c(-c3ccc(F)cc3F)n2)cc(S(F)(F)(F)(F)F)c1 (single isomer, unassigned) [Example 32, 4-(2,4-Difluorophenyl)-5-fluoro-N-{3-[(S-methylsulfonimidoyl)methyl]-5-(pentafluoro-λ^6-sulfanyl)phenyl}pyrimidin-2-amine] | 6 nM | 263 | 1600 nM |  | 483 nM | 406 nM |  | 268 nM |  |
| CS(=O)(Cc1cc(Nc2ncc(F)c(-c3ccc(F)cc3F)n2)cc(S(F)(F)(F)(F)F)c1)=NC(N)=O (single isomer, unassigned) [Example 33, 1-{[3-{[4-(2,4-Difluorophenyl)-5-fluoropyrimidin-2-yl]amino}-5-(pentafluoro-λ^6-sulfanyl)benzyl](methyl)oxido-λ^6-sulfanylidene}urea] | 16 nM | 98 | 1600 nM |  |  | 611 nM | 675 nM | 246 nM |  |

Further lines, results first:

| IC50 (CDK9/CycT1) | Selectivity CDK9/CDK2 (CDK9/CycT1) | IC50 (CDK2/CycE) | IC50 ([1]; Homo sapiens, A2780, 96 h) | IC50 ([2]; Homo sapiens, NCI-H460, 96 h) | IC50 ([3]; Mus musculus, B16-F10, 96 h) | IC50 [2] | IC50 [1] | IC50 [3] | SMILES |
| --- | --- | --- | --- | --- | --- | --- | --- | --- | --- |
| 13 nM | 105 | 1400 nM |  |  |  |  |  |  | CS(=O)(Cc1cc(Nc2ncc(F)c(-c3ccc(F)cc3F)n2)cc(C(F)(F)F)c1)=NC#N (racemic) [Example 1, (rac)-{[3-{[4-(2,4-Difluorophenyl)-5-fluoropyrimidin-2-yl]amino}-5-(trifluoromethyl)benzyl](methyl)oxido-λ^6-sulfanylidene}cyanamide] |
| 10 nM | 88 | 880 nM |  |  |  |  |  |  | CS(=N)(=O)Cc1cc(Nc2ncc(F)c(-c3ccc(F)cc3F)n2)cc(C(F)(F)F)c1 (racemic) [Example 4, (rac)-4-(2,4-Difluorophenyl)-5-fluoro-N-{3-[(S-methylsulfonimidoyl)methyl]-5-(trifluoromethyl)phenyl}pyrimidin-2-amine] |
| 7 nM | 166 | 1200 nM | 130 nM | 360 nM | 390 nM |  |  |  | CS(=O)(Cc1cc(Nc2ncc(F)c(-c3ccc(F)cc3F)n2)cc(C(F)(F)F)c1)=NC#N (single isomer, unassigned) [Example 2, {[3-{[4-(2,4-Difluorophenyl)-5-fluoropyrimidin-2-yl]amino}-5-(trifluoromethyl)benzyl](methyl)oxido-λ^6-sulfanylidene}cyanamide] |
| 8 nM | 170 | 1300 nM |  |  |  | 340 nM | 260 nM | 340 nM | CS(=O)(Cc1cc(Nc2ncc(F)c(-c3ccc(F)cc3F)n2)cc(C(F)(F)F)c1)=NC#N (single isomer, unassigned) [Example 3, {[3-{[4-(2,4-Difluorophenyl)-5-fluoropyrimidin-2-yl]amino}-5-(trifluoromethyl)benzyl](methyl)oxido-λ^6-sulfanylidene}cyanamide] |
| 4 nM | 88 | 370 nM |  | 350 nM | 380 nM |  | 970 nM |  | CS(=O)(Cc1cc(Nc2ncc(F)c(-c3ccc(F)cc3F)n2)cc(C(F)(F)F)c1)=NC(N)=O (single isomer, unassigned) [Example 23, 1-{[3-{[4-(2,4-Difluorophenyl)-5-fluoropyrimidin-2-yl]amino}-5-(trifluoromethyl)benzyl](methyl)oxido-λ^6-sulfanylidene}urea] |
